Read-outs that look alike come from different tables or passages of the source.
What was measured:
Assay in all cases: Test C pre/postemergence
Format in all cases: in vivo
soybean (Glycine max) = conditions: Glycine max; for plant injury at 125 g/ha: 125 g ai/ha; for plant injury at 250 g/ha: 250 g ai/ha; for plant injury at 500 g/ha: 500 g ai/ha
Procedure, shortened: (§1)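 We sprayed seeded pots preemergence and 2–18 cm seedlings postemergence with test chemicals in a non-phytotoxic solvent mixture including surfactant. Greenhouse plants were visually compared with untreated controls at 12 to 14 days and scored 0 (no effect) to 100 (complete control).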

[1] = system: morningglory (Ipomoea coccinea); conditions: Ipomoea; for pest or weed control at 62 g/ha: 62 g ai/ha; for pest or weed control at 125 g/ha: 125 g ai/ha; for pest or weed control at 250 g/ha: 250 g ai/ha; for pest or weed control at 500 g/ha: 500 g ai/ha
Procedure, shortened: as §1

[2] = system: common ragweed (Ambrosia elatior); conditions: Ambrosia artemisiifolia; for pest or weed control at 62 g/ha: 62 g ai/ha; for pest or weed control at 125 g/ha: 125 g ai/ha; for pest or weed control at 250 g/ha: 250 g ai/ha; for pest or weed control at 500 g/ha: 500 g ai/ha
Procedure, shortened: as §1

kochia (Kochia scoparia) = conditions: Bassia scoparia; for pest or weed control at 62 g/ha: 62 g ai/ha; for pest or weed control at 125 g/ha: 125 g ai/ha; for pest or weed control at 250 g/ha: 250 g ai/ha; for pest or weed control at 500 g/ha: 500 g ai/ha
Procedure, shortened: as §1

[3] = system: common (oilseed) sunflower (Helianthus annuus); conditions: Helianthus annuus, pre-emergence, Preemergence, read-out: Plant response rating, Sunflower
Procedure, shortened: as §1

[4] = system: Surinam grass (Brachiaria decumbens); conditions: Urochloa decumbens; for pest or weed control at 125 g/ha: 125 g ai/ha; for pest or weed control at 500 g/ha: 500 g ai/ha; for pest or weed control at 62 g/ha: 62 g ai/ha; for pest or weed control at 250 g/ha: 250 g ai/ha
Procedure, shortened: as §1

[5] = post-emergence, Postemergence, scale 0 to 100, read-out: Plant response rating, Soybean
[6] = pre-emergence, Preemergence, scale 0 to 100, read-out: Plant response rating, Soybean
[7] = post-emergence, Postemergence, scale 0 to 100 (0 no effect, 100 complete control), read-out: Morningglory plant response rating
[8] = post-emergence, Postemergence, scale 0 to 100, read-out: Plant response rating, Morningglory
[9] = pre-emergence, Preemergence, scale 0 to 100, read-out: Plant response rating, Morningglory
[10] = post-emergence, Postemergence, scale 0 to 100 (0 no effect, 100 complete control), read-out: Ragweed plant response rating
[11] = post-emergence, Postemergence, scale 0 to 100, read-out: Plant response rating, Ragweed
[12] = pre-emergence, Preemergence, scale 0 to 100, read-out: Plant response rating, Ragweed
[13] = post-emergence, Postemergence, scale 0 to 100 (0 no effect, 100 complete control), read-out: Kochia plant response rating
[14] = post-emergence, Postemergence, scale 0 to 100, read-out: Plant response rating, Kochia
[15] = pre-emergence, Preemergence, scale 0 to 100, read-out: Plant response rating, Kochia
[16] = post-emergence, Postemergence, scale 0 to 100 (0 no effect, 100 complete control), read-out: Surinam Grass plant response rating
[17] = post-emergence, Postemergence, scale 0 to 100, read-out: Plant response rating, Surinam Grass
[18] = pre-emergence, Preemergence, scale 0 to 100, read-out: Plant response rating, Surinam Grass

For `CCOC(=O)c1nc(C2CC2)nc(N)c1Br` [Compound 1, ethyl 6-amino-5-bromo-2-cyclopropyl-4-pyrimidinecarboxylate], the plant injury at 125 g/ha (soybean (Glycine max); post-emergence, Postemergence, scale 0 to 100 (0 no effect, 100 complete control), read-out: Soybean plant response rating) was 100%, the plant injury at 250 g/ha (soybean (Glycine max); [5]) was 100% and the plant injury at 500 g/ha (soybean (Glycine max); [5]) was 100%. It also gave a plant injury at 62 g/ha (soybean (Glycine max); pre-emergence, Preemergence, 62 g ai/ha, scale 0 to 100, 0 no effect, 100 complete control, read-out: Plant response rating, Soybean) of 85%, a plant injury at 125 g/ha (soybean (Glycine max); [6]) of 100% and a plant injury at 250 g/ha (soybean (Glycine max); [6]) of 100%. The plant injury at 500 g/ha (soybean (Glycine max); [6]) was 100%, the pest or weed control at 62 g/ha [1, 7] was 100% and the pest or weed control at 125 g/ha [1, 7] was 100%. It also gave a pest or weed control at 250 g/ha [1, 8] of 100%, a pest or weed control at 500 g/ha [1, 8] of 100% and a pest or weed control at 62 g/ha ([1]; pre-emergence, Preemergence, scale 0 to 100, 0 no effect, 100 complete control, read-out: Plant response rating, Morningglory) of 90%. The pest or weed control at 125 g/ha [1, 9] was 100%, the pest or weed control at 250 g/ha [1, 9] was 100% and the pest or weed control at 500 g/ha [1, 9] was 100%. For the same compound, the pest or weed control at 62 g/ha [2, 10] was 100%, the pest or weed control at 125 g/ha [2, 10] was 100% and the pest or weed control at 250 g/ha [2, 11] was 100%. It also gave a pest or weed control at 500 g/ha [2, 11] of 100%, a pest or weed control at 62 g/ha ([2]; pre-emergence, Preemergence, scale 0 to 100, 0 no effect, 100 complete control, read-out: Plant response rating, Ragweed) of 95% and a pest or weed control at 125 g/ha [2, 12] of 100%. The pest or weed control at 250 g/ha [2, 12] was 100%, the pest or weed control at 500 g/ha [2, 12] was 100% and the pest or weed control at 62 g/ha (kochia (Kochia scoparia); [13]) was 100%. For the same compound, the pest or weed control at 125 g/ha (kochia (Kochia scoparia); [13]) was 100%, the pest or weed control at 250 g/ha (kochia (Kochia scoparia); [14]) was 100% and the pest or weed control at 500 g/ha (kochia (Kochia scoparia); [14]) was 100%. The pest or weed control at 62 g/ha (kochia (Kochia scoparia); pre-emergence, Preemergence, scale 0 to 100, 0 no effect, 100 complete control, read-out: Plant response rating, Kochia) was 95%, the pest or weed control at 125 g/ha (kochia (Kochia scoparia); [15]) was 100% and the pest or weed control at 250 g/ha (kochia (Kochia scoparia); [15]) was 100%. It also gave a pest or weed control at 500 g/ha (kochia (Kochia scoparia); [15]) of 100%, a pest or weed control at 62 g/ha ([3]; 62 g ai/ha, scale 0 to 100, 0 no effect, 100 complete control) of 80% and a pest or weed control at 125 g/ha ([3]; 125 g ai/ha, scale 0 to 100) of 100%. The pest or weed control at 250 g/ha ([3]; 250 g ai/ha, scale 0 to 100) was 100%, the pest or weed control at 500 g/ha ([3]; 500 g ai/ha, scale 0 to 100) was 100% and the pest or weed control at 125 g/ha [4, 16] was 90%. It also gave a pest or weed control at 500 g/ha [4, 17] of 95%, a pest or weed control at 62 g/ha [4, 16] of 90% and a pest or weed control at 250 g/ha [4, 17] of 90%. For the same compound, the pest or weed control at 62 g/ha ([4]; pre-emergence, Preemergence, scale 0 to 100, 0 no effect, 100 complete control, read-out: Plant response rating, Surinam Grass) was 0%, the pest or weed control at 125 g/ha [4, 18] was 35% and the pest or weed control at 250 g/ha [4, 18] was 90%. The pest or weed control at 500 g/ha [4, 18] was 90%.

— patent US8802597B2, “Herbicidal pyrimidines” (E I du Pont de Nemours and Company, priority 2003, dated 2014)
